Measurements taken from patent US20210215714A1, “COMPLEMENT ALTERNATIVE PATHWAY-ASSOCIATED NEPHROPATHY BIOMARKERS” (Achillion Pharmaceuticals, Inc., priority 2018, published 2021).

Experiments:
AP activity = experiment: rabbit erythrocyte hemolysis (AP activity in vitro); type: cell-based; details: Oryctolagus cuniculus
C4 = experiment: Phase 2a study: C4 levels in serum; type: in vivo, human; details: 14-day treatment, patients A-F
Experimental: Systemic complement proteins were measured in serum and plasma including serum Ba, plasma Bb, serum C3, serum Factor D, serum C4, and % Fragment C3.
C4 levels in serum were measured using a quantitative sandwich enzyme immunoassay technique. A monoclonal antibody specific for human C4 was pre-coated onto a micro-assay plate. Standards and samples were pipetted into the wells and any C4 present was bound by the immobilized antibody. After washing away any unbound substances, an enzyme-linked polyclonal antibody specific for human C4 was added to the wells. Following a wash to remove any unbound antibody-enzyme reagent, a substrate solution was added to the wells and color develops in proportion to the amount of C4 bound in the initial step. The color development was stopped and the intensity of the color was measured spectrophotometrically at 450 nm.

[1] = Phase 2a study in C3G / IC-MPGN patients: urine albumin-to-creatinine ratio (ACR); details: for ACR GEOMEAN / ACR MEAN: patients A-F;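 as to all read-outs here: urine samples from C3G or IC-MPGN patients read by central lab dipstick on automated urine chemistry analyzer, ratio computed from albumin and creatinine pad absorbance, healthy volunteer urine as control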
From the text: 10 patients with either C3 Glomerulopathy (C3G) or Immune-Complex Membranoproliferative Glomerulonephritis (IC-MPGN) are to be enrolled across two dose groups. […] Inclusion criteria include a clinical diagnosis of C3G (C3 glomerulonephritis [C3GN] or dense deposit disease [DDD], the 2 types of C3G) or idiopathic immune-complex membranoproliferative glomerulonephritis (IC-MPGN) by renal biopsy for at least 3 months prior to dosing, with the pathologic diagnosis verified by review of the renal biopsy by the study central pathologist. Patients must have low C3 levels (<50% of the lower limit of normal) and normal or near-normal C4 levels (>90% of the lower limit of normal). Group 1 has enrolled 2 out of 2 planned patients and Group 2 has enrolled 4 out of 8 planned patients.
Albumin and creatinine levels were measured in urine samples by a central reference lab using a urine dipstick method. Urine from non-study healthy volunteers served as control samples. An automatic urinary chemical analyzer was used with a dye for the detection of albumin at >8 mg/dL. Also present on the dipstick was a pad for detection of creatinine that uses the peroxidase activity of the copper-creatinine complex. The ACR ratio was automatically calculated by the analyzer based on the light absorbent readings of the albumin and creatinine test pads.

CC(=O)c1nn(CC(=O)N2C[C@H](F)C[C@H]2C(=O)Nc2cccc(Br)n2)c2ccc(-c3cnc(C)nc3)cc12 [Compound 1, (2S,4R)-1-(2-(3-acetyl-5-(2-methylpyrimidin-5-yl)-1H-indazol-1-yl)acetyl)-N-(6-bromopyridin-2-yl)-4-fluoropyrrolidine-2-carboxamide]
IC50 (AP activity): 27 nM
Serum C4 (C4): remained unchanged
ACR ([1]; Patient A, 100 mg TID, Day 1/0 Hour): 259 mg/mmol
ACR ([1]; Patient A, 100 mg TID, Day 4): 218 mg/mmol
ACR ([1]; Patient A, 100 mg TID, Day 7/0 Hour): 233 mg/mmol
ACR ([1]; Patient A, 100 mg TID, Day 10): 228 mg/mmol
ACR ([1]; Patient A, 100 mg TID, Day 14): 175 mg/mmol
ACR ([1]; Patient A, 100 mg TID, Day 15 Taper): 144 mg/mmol
ACR ([1]; Patient A, 100 mg TID, Day 16 Taper): 143 mg/mmol
ACR ([1]; Patient A, 100 mg TID, Day 17 Taper): 115 mg/mmol
ACR ([1]; Patient A, 100 mg TID, Day 21 Taper): 140 mg/mmol
ACR ([1]; Patient A, 100 mg TID, Follow-Up Day 24): 138 mg/mmol
ACR ([1]; Patient A, 100 mg TID, Follow-Up Day 28): 132 mg/mmol
ACR ([1]; Patient A, 100 mg TID, Follow-Up Day 35): 160 mg/mmol
ACR ([1]; Patient A, 100 mg TID, Follow-Up Day 49): 147 mg/mmol
ACR ([1]; Patient A, 100 mg TID, Screen): 228 mg/mmol
ACR ([1]; Patient B, 100 mg TID, Day 1/0 Hour): 580 mg/mmol
ACR ([1]; Patient B, 100 mg TID, Day 4): 264 mg/mmol
ACR ([1]; Patient B, 100 mg TID, Day 7/0 Hour): 249 mg/mmol
ACR ([1]; Patient B, 100 mg TID, Day 10): 253 mg/mmol
ACR ([1]; Patient B, 100 mg TID, Day 14): 343 mg/mmol
ACR ([1]; Patient B, 100 mg TID, Day 15 Taper): 325 mg/mmol
ACR ([1]; Patient B, 100 mg TID, Day 16 Taper): 329 mg/mmol
ACR ([1]; Patient B, 100 mg TID, Day 17 Taper): 263 mg/mmol
ACR ([1]; Patient B, 100 mg TID, Day 21 Taper): 373 mg/mmol
ACR ([1]; Patient B, 100 mg TID, Follow-Up Day 24): 469 mg/mmol
ACR ([1]; Patient B, 100 mg TID, Follow-Up Day 28): 381 mg/mmol
ACR ([1]; Patient B, 100 mg TID, Follow-Up Day 49): 140 mg/mmol
ACR ([1]; Patient B, 100 mg TID, Screen): 486 mg/mmol
ACR ([1]; Patient C, 200 mg TID, Day 1/0 Hour): 58 mg/mmol
ACR ([1]; Patient C, 200 mg TID, Day 4): 27 mg/mmol
ACR ([1]; Patient C, 200 mg TID, Day 7/0 Hour): 22 mg/mmol
ACR ([1]; Patient C, 200 mg TID, Day 10): 35 mg/mmol
ACR ([1]; Patient C, 200 mg TID, Day 14): 30 mg/mmol
ACR ([1]; Patient C, 200 mg TID, Day 15 Taper): 44 mg/mmol
ACR ([1]; Patient C, 200 mg TID, Day 16 Taper): 26 mg/mmol
ACR ([1]; Patient C, 200 mg TID, Day 17 Taper): 32 mg/mmol
ACR ([1]; Patient C, 200 mg TID, Day 21 Taper): 23 mg/mmol
ACR ([1]; Patient C, 200 mg TID, Follow-Up Day 24): 32 mg/mmol
ACR ([1]; Patient C, 200 mg TID, Follow-Up Day 28): 47 mg/mmol
ACR ([1]; Patient C, 200 mg TID, Follow-Up Day 49): 20 mg/mmol
ACR ([1]; Patient C, 200 mg TID, Screen): 44 mg/mmol
ACR ([1]; Patient C, 200 mg TID, Screen 1): 128 mg/mmol
ACR ([1]; Patient D, 200 mg TID, Day 1/0 Hour): 224 mg/mmol
ACR ([1]; Patient D, 200 mg TID, Day 4): 279 mg/mmol
ACR ([1]; Patient D, 200 mg TID, Day 7/0 Hour): 322 mg/mmol
ACR ([1]; Patient D, 200 mg TID, Day 10): 648 mg/mmol
ACR ([1]; Patient D, 200 mg TID, Day 14): 286 mg/mmol
ACR ([1]; Patient D, 200 mg TID, Day 15 Taper): 328 mg/mmol
ACR ([1]; Patient D, 200 mg TID, Day 17 Taper): 586 mg/mmol
ACR ([1]; Patient D, 200 mg TID, Day 21 Taper): 564 mg/mmol
ACR ([1]; Patient D, 200 mg TID, Follow-Up Day 24): 282 mg/mmol
ACR ([1]; Patient D, 200 mg TID, Follow-Up Day 28): 577 mg/mmol
ACR ([1]; Patient D, 200 mg TID, Follow-Up Day 35): 398 mg/mmol
ACR ([1]; Patient D, 200 mg TID, Follow-Up Day 49): 636 mg/mmol
ACR ([1]; Patient D, 200 mg TID, Screen): 579 mg/mmol
ACR ([1]; Patient D, 200 mg TID, Screen 1): 160 mg/mmol
ACR ([1]; Patient E, 200 mg TID, Day 1/0 Hour): 424 mg/mmol
ACR ([1]; Patient E, 200 mg TID, Day 4): 418 mg/mmol
ACR ([1]; Patient E, 200 mg TID, Day 7/0 Hour): 533 mg/mmol
ACR ([1]; Patient E, 200 mg TID, Day 10): 625 mg/mmol
ACR ([1]; Patient E, 200 mg TID, Day 14): 264 mg/mmol
ACR ([1]; Patient E, 200 mg TID, Day 15 Taper): 327 mg/mmol
ACR ([1]; Patient E, 200 mg TID, Day 16 Taper): 277 mg/mmol
ACR ([1]; Patient E, 200 mg TID, Day 17 Taper): 475 mg/mmol
ACR ([1]; Patient E, 200 mg TID, Day 21 Taper): 257 mg/mmol
ACR ([1]; Patient E, 200 mg TID, Follow-Up Day 24): 303 mg/mmol
ACR ([1]; Patient E, 200 mg TID, Follow-Up Day 28): 307 mg/mmol
ACR ([1]; Patient E, 200 mg TID, Follow-Up Day 49): 327 mg/mmol
ACR ([1]; Patient F, 200 mg TID, Day 4): 152 mg/mmol
ACR ([1]; Patient F, 200 mg TID, Day 7/0 Hour): 94 mg/mmol
ACR ([1]; Patient F, 200 mg TID, Day 14): 184 mg/mmol
ACR ([1]; Patient F, 200 mg TID, Day 15 Taper): 720 mg/mmol
ACR ([1]; Patient F, 200 mg TID, Day 16 Taper): 235 mg/mmol
ACR ([1]; Patient F, 200 mg TID, Day 17 Taper): 475 mg/mmol
ACR ([1]; Patient F, 200 mg TID, Day 21 Taper): 348 mg/mmol
ACR ([1]; Patient F, 200 mg TID, Follow-Up Day 24): 279 mg/mmol
ACR ([1]; Patient F, 200 mg TID, Follow-Up Day 28): 253 mg/mmol
ACR ([1]; Patient F, 200 mg TID, Follow-Up Day 35): 168 mg/mmol
ACR ([1]; Patient F, 200 mg TID, Follow-Up Day 49): 564 mg/mmol
ACR ([1]; Patient F, 200 mg TID, Screen): 308 mg/mmol
reductions in ACR ([1]; Patients A, B, C, E, and F, two-week treatment): approximately 50%
ACR GEOMEAN ([1]; Day 1/0 Hour): 249.6 mg/mmol
ACR MEAN ([1]; Day 1/0 Hour): 306.4 mg/mmol
ACR GEOMEAN ([1]; Day 4): 174.0 mg/mmol
ACR MEAN ([1]; Day 4): 226.3 mg/mmol
ACR GEOMEAN ([1]; Day 7/0 Hour): 164.9 mg/mmol
ACR MEAN ([1]; Day 7/0 Hour): 242.1 mg/mmol
ACR GEOMEAN ([1]; Day 14): 171.4 mg/mmol
ACR MEAN ([1]; Day 14): 213.8 mg/mmol
ACR GEOMEAN ([1]; Day 15 Taper): 232.4 mg/mmol
ACR MEAN ([1]; Day 15 Taper): 314.6 mg/mmol
ACR GEOMEAN ([1]; Day 17 Taper): 224.2 mg/mmol
ACR MEAN ([1]; Day 17 Taper): 324.2 mg/mmol
ACR GEOMEAN ([1]; Day 21 Taper): 197.9 mg/mmol
ACR MEAN ([1]; Day 21 Taper): 284.0 mg/mmol
ACR GEOMEAN ([1]; Follow-Up Day 24): 191.6 mg/mmol
ACR MEAN ([1]; Follow-Up Day 24): 250.6 mg/mmol
ACR GEOMEAN ([1]; Follow-Up Day 28): 217.5 mg/mmol
ACR MEAN ([1]; Follow-Up Day 28): 282.6 mg/mmol
ACR GEOMEAN ([1]; Follow-Up Day 49): 191.1 mg/mmol
ACR MEAN ([1]; Follow-Up Day 49): 305.6 mg/mmol
